# Experimental data as given in ChEMBL document CHEMBL3120080, “Characterization of lovastatin-docosahexaenoate anticancer properties against breast cancer cells” (Bioorg Med Chem, 2014).
# The source made the active and inactive calls. The calls are words filed in the database; no cut-off is given here.
# What was measured:
# MDA-MB-231 [1] = test: Induction of apoptosis in human MDA-MB-231 cells assessed as viable cells at 10 uM after 48 hrs by annexin V/propidium iodide based flow cytometry (reference value: 93.2 +/-0.9%); format: functional; settings: MDA-MB-231, 48 h, read-out: Activity
# MDA-MB-231 [2] = test: Cytotoxicity against PR, ER, HER2-negative human MDA-MB-231 cells assessed as decrease in cell viability at >5 uM after 48 hrs by WST-1 assay; format: functional, cell-based
# MCF7 [3] = test: Growth inhibition of ER-positive, HER2-negative human MCF7 cells after 48 hrs by WST-1 assay; format: functional, cell-based
# HMEC [4] = test: Cytotoxicity against human HMEC at 25 uM after 48 hrs by WST-1 assay; format: cell-based
# MDA-MB-231 [5] = test: Downregulation of p21 expression in human PR, ER, HER2-negative human MDA-MB-231 cells at 10 uM after 24 hrs by western blot analysis; format: functional, cell-based
# MDA-MB-231 [6] = test: Stability of the compound in human MDA-MB-231 cells assessed as DHA content at 5 uM after 24 hrs by gas chromatography; format: ADME, cell-based; settings: mda-mb-231, 24 h
# AU565 [7] = test: Growth inhibition of ER-negative, HER2-positive human AU565 cells at >5 uM after 48 hrs by WST-1 assay; format: functional, cell-based
# MDA-MB-231 [8] = test: Growth inhibition of PR, ER, HER2-negative human MDA-MB-231 cells at 1 uM after 48 hrs by WST-1 assay in presence of mevalonate; format: functional, cell-based
# MDA-MB-231 [9] = test: Cell cycle arrest in PR, ER, HER2-negative human MDA-MB-231 cells assessed as accumulation at G0/G1 phase at 10 uM after 30 hrs by flow cytometer (reference value: 49.8 +/-1.5%); format: functional
# MDA-MB-231 [10] = test: Induction of apoptosis in human MDA-MB-231 cells assessed as necrotic cells at 10 uM after 48 hrs by annexin V/propidium iodide based flow cytometry (reference value: 4.4 +/-0.4%); format: functional
# MDA-MB-231 [11] = test: Induction of apoptosis in human MDA-MB-231 cells assessed as viable cells at 5 uM after 48 hrs by annexin V/propidium iodide based flow cytometry (reference value: 93.2 +/-0.9%); format: functional; settings: MDA-MB-231, 48 h, read-out: Activity
# MDA-MB-231 [12] = test: Cell cycle arrest in PR, ER, HER2-negative human MDA-MB-231 cells assessed as accumulation at G0/G1 phase at 1 uM after 30 hrs by flow cytometer (reference value: 49.8 +/-1.5%); format: functional
# MDA-MB-231 [13] = test: Induction of apoptosis in human MDA-MB-231 cells assessed as apoptotic cells at 5 uM after 48 hrs by annexin V/propidium iodide based flow cytometry (reference value: 2.4 +/-0.5%); format: functional
# MDA-MB-231 [14] = test: Cell cycle arrest in PR, ER, HER2-negative human MDA-MB-231 cells assessed as accumulation at S phase at 10 uM after 30 hrs by flow cytometer (reference value: 33.1 +/-0.3%); format: functional
# MDA-MB-231 [15] = test: Cell cycle arrest in PR, ER, HER2-negative human MDA-MB-231 cells assessed as accumulation at G2/M phase at 1 uM after 30 hrs by flow cytometer (reference value: 17.1 +/-2.1%); format: functional
# MDA-MB-361 [16] = test: Cytotoxicity against ER-positive, HER2-positive human MDA-MB-361 cells at higher concentration after 48 hrs by WST-1 assay; format: functional, cell-based
# MDA-MB-468 [17] = test: Cytotoxicity against PR, ER, HER2-negative human MDA-MB-468 cells at >7.5 uM after 48 hrs by WST-1 assay; format: functional, cell-based
# MDA-MB-231 [18] = test: Cell cycle arrest in PR, ER, HER2-negative human MDA-MB-231 cells assessed as accumulation at G2/M phase at 10 uM after 30 hrs by flow cytometer (reference value: 17.1 +/-2.1%); format: functional
# MDA-MB-231 [19] = test: Induction of apoptosis in human MDA-MB-231 cells assessed as necrotic cells at 1 uM after 48 hrs by annexin V/propidium iodide based flow cytometry (reference value: 4.4 +/-0.4%); format: functional
# MDA-MB-231 [20] = test: Induction of apoptosis in human MDA-MB-231 cells assessed as apoptotic cells at 1 uM after 48 hrs by annexin V/propidium iodide based flow cytometry (reference value: 2.4 +/-0.5%); format: functional
# MDA-MB-231 [21] = test: Cell cycle arrest in PR, ER, HER2-negative human MDA-MB-231 cells assessed as accumulation at S phase at 1 uM after 30 hrs by flow cytometer (reference value: 33.1 +/-0.3%); format: functional
# AU565 [22] = test: Cytotoxicity against ER-negative, HER2-positive human AU565 cells after 48 hrs by WST-1 assay; format: functional, cell-based
# HMEC [23] = test: Cytotoxicity against human HMEC at >15 uM after 48 hrs by WST-1 assay; format: cell-based
# MDA-MB-231 [24] = test: Induction of apoptosis in human MDA-MB-231 cells assessed as necrotic cells at 5 uM after 48 hrs by annexin V/propidium iodide based flow cytometry (reference value: 4.4 +/-0.4%); format: functional
# MDA-MB-231 [25] = test: Induction of apoptosis in human MDA-MB-231 cells assessed as apoptotic cells at 10 uM after 48 hrs by annexin V/propidium iodide based flow cytometry (reference value: 2.4 +/-0.5%); format: functional
# MDA-MB-231 [26] = test: Induction of apoptosis in human MDA-MB-231 cells assessed as viable cells at 1 uM after 48 hrs by annexin V/propidium iodide based flow cytometry (reference value: 93.2 +/-0.9%); format: functional; settings: MDA-MB-231, 48 h, read-out: Activity
# Serum = test: Stability of the compound in mouse serum at 1 mM after 2 hrs by RP-HPLC analysis; format: ADME; settings: 1000 µM
# MDA-MB-468 [27] = test: Growth inhibition of PR, ER, HER2-negative human MDA-MB-468 cells after 48 hrs by WST-1 assay; format: functional, cell-based
# MDA-MB-361 [28] = test: Growth inhibition of ER-positive, HER2-positive human MDA-MB-361 cells after 48 hrs by WST-1 assay; format: functional, cell-based
# HMEC [29] = test: Cytotoxicity against human HMEC assessed as growth inhibition after 48 hrs by WST-1 assay; format: cell-based
# AU565 [30] = test: Total growth inhibition of ER-negative, HER2-positive human AU565 cells at >15 uM after 48 hrs by WST-1 assay; format: functional, cell-based
# MDA-MB-231 [31] = test: Growth inhibition of PR, ER, HER2-negative human MDA-MB-231 cells at <25 uM after 48 hrs by WST-1 assay; format: functional, cell-based
# MCF7 [32] = test: Total growth inhibition of ER-positive, HER2-negative human MCF7 cells after 48 hrs by WST-1 assay; format: functional, cell-based
# MDA-MB-468 [33] = test: Total growth inhibition of PR, ER, HER2-negative human MDA-MB-468 cells after 48 hrs by WST-1 assay; format: functional, cell-based
# MDA-MB-231 [34] = test: Cytotoxicity against PR, ER, HER2-negative human MDA-MB-231 cells after 48 hrs by WST-1 assay; format: functional, cell-based
# MDA-MB-468 [35] = test: Cytotoxicity against PR, ER, HER2-negative human MDA-MB-468 cells after 48 hrs by WST-1 assay; format: functional, cell-based
# MDA-MB-231 [36] = test: Growth inhibition of PR, ER, HER2-negative human MDA-MB-231 cells after 48 hrs by WST-1 assay in presence of geranylgeranyl pyrophosphate; format: functional, cell-based
# AU565 [37] = test: Growth inhibition of ER-negative, HER2-positive human AU565 cells after 48 hrs by WST-1 assay; format: functional, cell-based
# MDA-MB-231 [38] = test: Total growth inhibition of PR, ER, HER2-negative human MDA-MB-231 cells at >10 uM after 48 hrs by WST-1 assay; format: functional, cell-based
# MDA-MB-231 [39] = test: Induction of p21 expression in human PR, ER, HER2-negative human MDA-MB-231 cells at 1 to 10 uM after 24 hrs by western blot analysis; format: functional, cell-based
SMILES,viability at 10 µM (MDA-MB-231 [1]) [%],growth inhibition (GI) (MCF7 [3]),inhibition (MDA-MB-231 [5]),growth inhibition (GI) (MDA-MB-231 [8]),Activity (MDA-MB-231 [9]) [%],Activity (MDA-MB-231 [10]) [%],viability at 5 µM (MDA-MB-231 [11]) [%],Activity (MDA-MB-231 [12]) [%],Activity (MDA-MB-231 [13]) [%],Activity (MDA-MB-231 [14]) [%],Activity (MDA-MB-231 [15]) [%],Activity (MDA-MB-231 [18]) [%],Activity (MDA-MB-231 [19]) [%],Activity (MDA-MB-231 [20]) [%],Activity (MDA-MB-231 [21]) [%],Activity (MDA-MB-231 [24]) [%],Activity (MDA-MB-231 [25]) [%],viability at 1 µM (MDA-MB-231 [26]) [%],growth inhibition (GI) (MDA-MB-361 [28]),Activity (HMEC [29]),other results
CC/C=C\C/C=C\C/C=C\C/C=C\C/C=C\C/C=C\CCC(=O)O[C@H]1CC(=O)O[C@H](CC[C@@H]2[C@@H]3C(=C[C@H](C)C[C@@H]3OC(=O)[C@@H](C)CC)C=C[C@@H]2C)C1,40,Active,Active,Active,51.2,35.4,83.3,47.8,7.2,34.8,17.3,14.1,6.7,9.2,34.9,9.6,24.6,84.1,,,Activity (MDA-MB-231 [2]): Active; Activity (HMEC [4]): 25%; Stability (MDA-MB-231 [6]): Stable; growth inhibition (GI) (AU565 [7]): Active; Activity (MDA-MB-361 [16]): Active; Activity (MDA-MB-468 [17]): Active; Activity (AU565 [22]): inactive; Activity (HMEC [23]): Toxic; Stability (Serum): Stable
CC/C=C\C/C=C\C/C=C\C/C=C\C/C=C\C/C=C\CCC(=O)O [DOCONEXENT],92.5,Active,Active,,50.8,5.6,96.5,48.7,1.1,33,17.5,16.2,2.9,2.6,33.8,2.4,1.9,94.5,Active,Dose-dependent effect,growth inhibition (GI) (MDA-MB-468 [27]): Active; TGI (AU565 [30]): Active; growth inhibition (GI) (MDA-MB-231 [31]): Active
CC[C@H](C)C(=O)O[C@H]1C[C@@H](C)C=C2C=C[C@H](C)[C@H](CC[C@@H]3C[C@@H](O)CC(=O)O3)[C@H]21 [LOVASTATIN],84.2,,,inactive,83.9,11.2,84.3,74.7,4.9,9.8,9,6.3,7.8,2.5,16.3,10.8,4.6,89.7,Active,Toxic,TGI (MCF7 [32]): Active; TGI (MDA-MB-468 [33]): Active; Activity (MDA-MB-231 [34]): inactive; Activity (MDA-MB-468 [35]): inactive; growth inhibition (GI) (MDA-MB-231 [36]): inactive; growth inhibition (GI) (AU565 [37]): Active; TGI (MDA-MB-231 [38]): Active; Activity (MDA-MB-231 [39]): Active
